Reference: paper PMC7587970, “Lanostane Triterpenoids from the Fruiting Bodies of Fomes officinalis and Their Anti-Inflammatory Activities” (Molecules, 2020)
Read-outs that look alike come from different tables or passages of the source.

Molecular target: T1, cyclooxygenase (COX-2) (Ovis aries, UniProt P79208)
T1 construct: gene PTGS2
T1 sequence (P79208 17-603): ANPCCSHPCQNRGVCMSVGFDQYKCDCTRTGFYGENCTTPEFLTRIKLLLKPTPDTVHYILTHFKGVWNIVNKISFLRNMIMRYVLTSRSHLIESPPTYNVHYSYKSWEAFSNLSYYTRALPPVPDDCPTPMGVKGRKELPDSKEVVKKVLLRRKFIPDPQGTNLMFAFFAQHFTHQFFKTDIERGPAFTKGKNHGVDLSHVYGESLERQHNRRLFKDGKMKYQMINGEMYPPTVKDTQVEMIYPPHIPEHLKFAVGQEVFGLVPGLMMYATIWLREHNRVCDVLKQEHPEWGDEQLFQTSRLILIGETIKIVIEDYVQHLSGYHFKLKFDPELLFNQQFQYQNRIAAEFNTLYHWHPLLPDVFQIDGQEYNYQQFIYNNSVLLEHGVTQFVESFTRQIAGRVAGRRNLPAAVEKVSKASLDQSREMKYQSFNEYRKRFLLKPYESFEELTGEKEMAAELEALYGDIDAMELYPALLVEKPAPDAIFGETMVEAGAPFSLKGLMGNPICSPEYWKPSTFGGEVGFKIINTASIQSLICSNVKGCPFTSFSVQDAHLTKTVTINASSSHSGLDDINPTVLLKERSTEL
Test: COX colorimetric inhibitor screening assay kit (Cayman), ovine recombinant COX-2
Type: biochemical

Compound	IC50 (read-out: IC50) [µM]	IC50 [µM]
C[C@@H]1C[C@]2(OC[C@]34[C@H](O)C=C5C(=CC[C@H]6C(C)(C)[C@H](OC(=O)CC(=O)O)CC[C@]56C)[C@]3(C)CC[C@H]14)OC(=O)[C@@H](C)[C@@H]2C [compound 3, officimalonic acid K]	30.1	
COc1ccc2cc([C@H](C)C(=O)O)ccc2c1 [naproxen, reference compound]		8.2
COC(=O)CC(=O)O[C@@H]1CC[C@]2(C)C3=C(C(=O)C[C@H]2C1(C)C)[C@]1(C)CC[C@H]([C@H](C)C[C@@H]2OC(=O)C(C)=C2C)[C@@]1(C)[C@H](O)C3 [compound 5, officimalonic acid M]	42.3	
